From patent publication US12385839B2, “Use of protein in predicting drug properties” (priority 2021, dated 2025)
Like-named read-outs stand apart in the source and are kept apart here.

Tests used:
[1] = target: T1, human serum albumin (HSA) (Homo sapiens, UniProt P02768); test: Fluorescence emission spectrum (quenching) of HSA with carbamate pesticides; format: binding; conditions: for R (binding distance): Förster energy transfer; for ΔH^0 / ΔS^0: Van't Hoff, 296-310 K
Experimental: the mixed solution to be tested was preheated at […] for 3 minutes, and the emission spectrum of HSA with carbamate pesticides was measured at 300-500 nm . The excitation wavelength was set at 280 nm , and the slit width for both excitation and emission was 15 nm; the HSA concentration was kept constant at 5×10^−7 M, and the pesticide concentration was (0-105)×10^−7 M.
The internal filtering effect of fluorescence signal was corrected according to the following formula: Fcor=Fobsexp[(Aex+Aem)/2] (1);
in this formula, Fcor and Fobs represent corrected fluorescence signal and observed fluorescence signal, respectively, and Aex and Aem represent absorbance of the mixed solution to be tested at excitation wavelength and emission wavelengths, respectively; the quenching constant, number of binding sites, binding constant, free energy and binding distance of different drugs were obtained by fluorescence emission spectra, and a BP neural network model was obtained. Specifically, they were obtained as follows:
There is a linear relationship between F0/F and [Q] to distinguish whether it is static quenching or dynamic quenching. The fluorescence quenching data are analyzed by Stern-Volmer equation to clarify the quenching mechanism: F0/F=1+KSV[Q]=1+Kqτ0[Q] (2);
in the formula, F0 and F are fluorescence signals […] quencher, respectively. Ksv is Stern-Volmer quenching constant; Kq is a quenching rate constant of biomolecules; τ0 is the average lifetime of biomolecules without quencher (about 10^−8 s); [Q] is the concentration of quencher.
The maximum dynamic quenching rate constant of all kinds of quenchers on polymers was 2.0×10^10 L·mol^−1·s^−1. Static quenching and dynamic quenching could be judged according to this value. If K^q was greater than 2.0×10^10 L·mol^−1·s^−1, it belonged to static quenching. Otherwise, it belonged to dynamic quenching.
In this part, the binding sites and binding constants between carbamate pesticides and HSA were calculated. The following formula was used to calculate the number of binding sites (n) and the binding constant (Ka) of carbamate pesticides and HSA: log[(F0−F)/F]=log Ka+nlog[Q] (3);
The interactions between biological molecules and drug molecules were weak intermolecular interactions, including hydrogen bonds, van der Waals forces, electrostatic forces and hydrophobic interactions. By using Van't Hoff equation, the thermodynamic constants of drug-protein interaction were obtained, and the main types of drug-protein interaction were judged according to the changes of binding constants under different conditions. LnK=−ΔH^0/RT+ΔS^0/R (4); ΔG^0=ΔH^0−TΔS^0 (5);
There is a relationship among energy transfer efficiency E, distance r between energy donor and energy receptor and energy transfer distance R0. E=1−F/F0=R0^6/(R0^6+r^6) (6);
E represents the transfer efficiency between donor and receptor, r is the average distance between donor and receptor, and R0 is the critical distance when the transfer efficiency is 50%. R0^6=8.79×10^−K^2N^−4φJ (7)
K^2 is the orientation related to the geometry of donor and receptor of dipole. For random orientation in fluid, K^2=2/3; N is the average refractive index of the medium in the wavelength range with obvious spectral overlap, and the refractive index of water and organic matter is 1.336; φ is the quantum yield of donor, and the quantum yield of tryptophan in HSA is about 0.118; J represents the influence of spectral overlap between the emission spectrum of the donor and the absorption spectrum of the receptor, and can be calculated by the following formula: j=ΣF(λ)ϵ(λ)λ^4Δλ/ΣF(λ) Δλ (8);
F(λ) is the corrected fluorescence signal of the donor in the wavelength range from λ to (λ+Δλ), while ϵ(λ) is the extinction coefficient of the receptor at λ.

[2] = cited from earlier work; for LD50: modelling table; for Toxicity: toxicity grade by LD50, trailing figure = number of pesticides in group
[3] = target: T1, human serum albumin (HSA); test: Circular dichroism spectrum, secondary structure (α-helix content) of HSA; conditions: HSA 2×10^−6 M
Experimental: the mixed solution to be tested was preheated at […] for 2-5 minutes, and the CD spectrum of HSA was recorded in the wavelength range of 200-500 nm . The concentration of HSA was kept at 2×10^−6 M, and the pesticide was (0-20)×10^−6 m. Firstly, HSA was measured, and then the ratio of HSA to pesticides needed to be determined specifically, which was preliminarily determined according to the ratio of 1:1, 1:2 and 1:3.
According to the following equation, the result of CD spectrum was usually expressed as the mean residue ellipticity (MRE), and the unit was deg·cm^2·dmol^−1. MRE=ObservedCD(mdeg)/(10Cpnl) (9);
in which Cp is the molar concentration of protein, n is the number (585) of amino acid residues, and 1 is the path length (1 mm). The α helicity of free and bound HSA is calculated from MRE values using the following formula: α−Helix(%)=[(−MRE208−4000)×100]/(33000-4000) (10)
in which the MRE208 is the MRE value observed at 208 nm , 4000 is the MRE value of random coil conformation at 208 nm , and […] is the MRE value of pure α helix at 208 nm .

[4] = 37°, modelling table, read-out: Ka (37°) (converted)
[5] = 296 K, test-set pesticides (Table 4)
[6] = 303 K, test-set pesticides (Table 4)
[7] = 310 K, test-set pesticides (Table 4)

T1 sequence (P02768 25-609): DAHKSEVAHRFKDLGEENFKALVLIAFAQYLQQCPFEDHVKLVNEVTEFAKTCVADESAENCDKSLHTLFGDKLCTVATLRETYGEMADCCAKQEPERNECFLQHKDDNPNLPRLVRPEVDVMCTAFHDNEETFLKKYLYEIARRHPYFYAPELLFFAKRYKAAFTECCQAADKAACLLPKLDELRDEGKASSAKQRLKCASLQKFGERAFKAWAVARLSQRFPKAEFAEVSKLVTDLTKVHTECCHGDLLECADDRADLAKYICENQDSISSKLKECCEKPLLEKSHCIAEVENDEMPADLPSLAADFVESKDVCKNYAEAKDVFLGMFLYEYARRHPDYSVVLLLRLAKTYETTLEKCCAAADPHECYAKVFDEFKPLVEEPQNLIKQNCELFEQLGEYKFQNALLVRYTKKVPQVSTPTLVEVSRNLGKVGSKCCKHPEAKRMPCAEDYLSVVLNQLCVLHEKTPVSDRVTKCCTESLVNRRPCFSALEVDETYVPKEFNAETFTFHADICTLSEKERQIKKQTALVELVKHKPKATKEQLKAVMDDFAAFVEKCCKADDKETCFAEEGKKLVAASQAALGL

SMILES: CNC(=O)O/N=C/C(C)(C)SC [Aldicarb, aldicarb]
- Ksv (37°) ([1]; 37°, modelling table): 72295.50723
- ΔG(37°) ([1]; 37°, modelling table): −24.42
- Kd [1, 4]: 77.3 µM
- n ([1]; 296 K (Table 4)): 0.823 ± 0.002
- ΔG^0 ([1]; 296 K (Table 4)): -5.321 kcal/mol
- Kd ([1]; 296 K (Table 4), read-out: Ka): 119 µM
- Ksv [1, 5]: 6.498 ± 0.153 10^4 M−1
- n ([1]; 303 K (Table 4)): 0.837 ± 0.002
- ΔG^0 ([1]; 303 K (Table 4)): -5.5786 kcal/mol
- Kd ([1]; 303 K (Table 4), read-out: Ka): 93.5 µM
- Ksv [1, 6]: 6.999 ± 0.079 10^4 M−1
- n ([1]; 310 K (Table 4)): 0.851 ± 0.002
- r ([1]; 310 K (Table 4)): 2.623
- ΔG^0 ([1]; 310 K (Table 4)): -5.8363 kcal/mol
- Ksv [1, 7]: 7.230 ± 0.167 10^4 M−1
- Binding distance/r ([1]; modelling table): 2.623
- Number of binding sites/n ([1]; modelling table): 0.8508
- Actual LD50 ([2]; Table 5): 0.5 mg/kg
- Actual LD50 ([2]; Table 6): 0.5 mg/kg
- LD50 [2]: 0.5 mg/kg
- Toxicity [2]: Highly

SMILES: CNC(=O)O/N=C/C(C)(C)S(C)(=O)=O [Aldicarb-sulfone, aldicarb sulfone]
- Ksv (37°) ([1]; 37°, modelling table): 39842.68547
- ΔG(37°) ([1]; 37°, modelling table): −17.29
- n ([1]; 296 K (Table 4)): 0.582 ± 0.008
- ΔG^0 ([1]; 296 K (Table 4)): -3.2622 kcal/mol
- Ksv [1, 5]: 2.797 ± 0.157 10^4 M−1
- n ([1]; 303 K (Table 4)): 0.624 ± 0.003
- ΔG^0 ([1]; 303 K (Table 4)): -3.6977 kcal/mol
- Ksv [1, 6]: 3.379 ± 0.129 10^4 M−1
- n ([1]; 310 K (Table 4)): 0.654 ± 0.010
- r ([1]; 310 K (Table 4)): 2.376
- ΔG^0 ([1]; 310 K (Table 4)): -4.1334 kcal/mol
- Ksv [1, 7]: 3.984 ± 0.197 10^4 M−1
- Kd ([1]; Ka (37°), 37°, modelling table): 1210 µM
- Kd ([1]; Ka, 296 K (Table 4)): 3860 µM
- Kd ([1]; Ka, 303 K (Table 4)): 2200 µM
- Number of binding sites/n ([1]; modelling table): 0.6544

SMILES: CNC(=O)Oc1ccc(N(C)C)c(C)c1 [Aminocarb, aminocarb]
- Ksv (37°) ([1]; 37°, modelling table): 39050.24214
- ΔG(37°) ([1]; 37°, modelling table): −18.36
- Kd [1, 4]: 786 µM
- ΔG^0 ([1]; 296 K): -3.7173 kcal/mol
- Kq ([1]; 296 K, pH 7.4): 3.151 ± 0.089 10^12 M^−1s^−1
- Ksv ([1]; 296 K, pH 7.4): 3.151 ± 0.089 10^4 M^−1
- n (number of binding sites) ([1]; 296 K, pH 7.4): 0.649 ± 0.005
- Kd ([1]; 296 K, pH 7.4, read-out: Ka (binding constant)): 1760 µM
- ΔG^0 ([1]; 303 K): -4.0531 kcal/mol
- Kq ([1]; 303 K, pH 7.4): 3.409 ± 0.059 10^12 M^−1s^−1
- Ksv ([1]; 303 K, pH 7.4): 3.409 ± 0.059 10^4 M^−1
- n (number of binding sites) ([1]; 303 K, pH 7.4): 0.669 ± 0.006
- Kd ([1]; 303 K, pH 7.4, read-out: Ka (binding constant)): 1250 µM
- ΔG^0 ([1]; 310 K): -4.3891 kcal/mol
- R (binding distance) ([1]; 310 K): 2.215 nm
- Kq ([1]; 310 K, pH 7.4): 3.905 ± 0.179 10^12 M^−1s^−1
- Ksv ([1]; 310 K, pH 7.4): 3.905 ± 0.179 10^4 M^−1
- n (number of binding sites) ([1]; 310 K, pH 7.4): 0.699 ± 0.003
- Kd ([1]; 310 K, pH 7.4, read-out: Ka (binding constant)): 786 µM
- fluorescence of HSA quenched by pesticide ([1]; 310 K, titration of pesticide): quenched
- ΔH^0 [1]: 10.487 kcal/mol
- ΔS^0 [1]: 200.780 J · mol^−1 · K^−1
- Binding distance/r ([1]; modelling table): 2.215
- Number of binding sites/n ([1]; modelling table): 0.6985
- α-helix contents ([3]; 5:1 (Pesticide:HSA)): 49.862%
- α-helix contents ([3]; 10:1 (Pesticide:HSA)): 49.082%
- LD50 [2]: 30 mg/kg
- Toxicity [2]: Highly

SMILES: CCC(C)c1ccccc1OC(=O)NC (stereo not shown) [Fenobucarb, fenobucarb]
- Ksv (37°) ([1]; 37°, modelling table): 50302.85806
- ΔG(37°) ([1]; 37°, modelling table): −15.31
- n ([1]; 296 K (Table 4)): 0.535 ± 0.006
- ΔG^0 ([1]; 296 K (Table 4)): -3.0858 kcal/mol
- Ksv [1, 5]: 3.803 ± 0.107 10^4 M−1
- n ([1]; 303 K (Table 4)): 0.559 ± 0.004
- ΔG^0 ([1]; 303 K (Table 4)): -3.3726 kcal/mol
- Ksv [1, 6]: 4.110 ± 0.183 10^4 M−1
- n ([1]; 310 K (Table 4)): 0.567 ± 0.008
- r ([1]; 310 K (Table 4)): 2.791
- ΔG^0 ([1]; 310 K (Table 4)): -3.6597 kcal/mol
- Ksv [1, 7]: 5.030 ± 0.145 10^4 M−1
- Kd ([1]; Ka (37°), 37°, modelling table): 2640 µM
- Kd ([1]; Ka, 296 K (Table 4)): 5280 µM
- Kd ([1]; Ka, 303 K (Table 4)): 3670 µM
- Binding distance/r ([1]; modelling table): 2.791
- Number of binding sites/n ([1]; modelling table): 0.5672
- Actual LD50 ([2]; Table 5): 350 mg/kg
- Actual LD50 ([2]; Table 6): 350 mg/kg
- LD50 [2]: 350 mg/kg
- Toxicity [2]: Moderately

SMILES: CNC(=O)O/N=C(\C[S+](C)[O-])C(C)(C)C (stereo not shown) [Thiofanox-sulfoxide]
- ΔG^0 ([1]; 296 K): -4.1427 kcal/mol
- Ka (binding constant) ([1]; 296 K, pH 7.4): (1.127 ± 0.100) × 10^3 M^−1
- Kq ([1]; 296 K, pH 7.4): 3.284 ± 0.040 10^12 M^−1s^−1
- Ksv ([1]; 296 K, pH 7.4): 3.284 ± 0.040 10^4 M^−1
- n (number of binding sites) ([1]; 296 K, pH 7.4): 0.707 ± 0.009
- ΔG^0 ([1]; 303 K): -4.5277 kcal/mol
- Ka (binding constant) ([1]; 303 K, pH 7.4): (1.906 ± 0.103) × 10^3 M^−1
- Kq ([1]; 303 K, pH 7.4): 4.237 ± 0.067 10^12 M^−1s^−1
- Ksv ([1]; 303 K, pH 7.4): 4.237 ± 0.067 10^4 M^−1
- n (number of binding sites) ([1]; 303 K, pH 7.4): 0.726 ± 0.005
- ΔG^0 ([1]; 310 K): -4.913 kcal/mol
- R (binding distance) ([1]; 310 K): 1.702 nm
- Ka (binding constant) ([1]; 310 K, pH 7.4): (2.861 ± 0.176) × 10^3 M^−1
- Kq ([1]; 310 K, pH 7.4): 5.339 ± 0.093 10^12 M^−1s^−1
- Ksv ([1]; 310 K, pH 7.4): 5.339 ± 0.093 10^4 M^−1
- n (number of binding sites) ([1]; 310 K, pH 7.4): 0.746 ± 0.006
- ΔH^0 [1]: 12.144 kcal/mol
- ΔS^0 [1]: 230.219 J · mol^−1 · K^−1
- α-helix contents ([3]; 5:1 (Pesticide:HSA)): 50.523%
- α-helix contents ([3]; 10:1 (Pesticide:HSA)): 48.338%
